No end group written: not given here.
What was measured:
P. aeruginosa H374 = format: cell-based, Pseudomonas aeruginosa; conditions: Table 14; in µg/mL
[1] = test system: Pseudomonas aeruginosa H187; format: cell-based; conditions: Table 15; in µg/mL
S. typhimurium 14028S = format: cell-based, Salmonella typhimurium; conditions: Table 14
Candida albicans 105 = format: cell-based; conditions: Table 15; in µg/mL
S. epidermidis C621 = format: cell-based, Staphylococcus epidermidis; conditions: Table 15
E. coli UB1005 = format: cell-based, Escherichia coli; conditions: Table 14
S. aureus (MRSA) = format: cell-based, Staphylococcus aureus; conditions: Table 15, strain SAP0017; in µg/mL
[2] = test system: human leukocyte (WBC) cells; experiment: Stimulation and proliferation of leukocytes, Alamar Blue; format: cell-based; conditions: for Peptide treated cell activity Percent stimulation relative to control: 48 hours
Protocol: In vitro viability of human leukocyte cells in the presence of different peptides at different concentrations was determined by an Alamar Blue protocol. Alamar Blue (Promega, Madison, Wis.) is an indicator dye, formulated to measure quantitatively the proliferation and cytotoxicity of the cells. The dye consists of an oxidation-reduction (redox) indicator that yields a calorimetric change and a fluorescent signal in response to cellular metabolic activity.
Assay protocol: Blood from a human was drawn and centrifuged at 1500 rpm for 15 minutes at room temperature. The buffy coat cells at the plasma-red blood cell interface were aspirated. Buffy coat cells (mainly lymphocyte cells) were then transferred into 15 ml centrifuge tubes containing 5 ml of RPMI-1640 medium+10% Fetal Bovine Serum (Gibco, Grand Island, N.Y.). Additional medium was added to the tubes to bring the volume up to 10 ml. The buffy coat suspension was then carefully layered on 5 ml of Histopaque (Sigma Chemical Co., St. Louis, Mo.) and centrifuged at 1500 rpm for 30 minutes at room temperature. The interface which is mostly PBMCs (peripheral mononuclear cells) was aspirated and transferred to a 15 ml conical centrifuge tube and, resuspended in 2 ml cold RPMI-1640 and brought up to 15 ml with cold RPMI-1640 medium. Cells were centrifuged at 1500 rpm for 10 minutes. The supernatant was then aspirated and discarded. The cell pellet was re-suspended in 1 ml of cold RPMI 1640 and brought up to 15 ml with RPMI medium. This step was repeated twice, except that in the last step, the cells were resuspended with 1 ml of cold RPMI-1640 medium and cell counts were performed with a hemocytometer according to the Sigma cell culture catalogue.
Pokewood mitogen was used as a control along with positive and negative controls. Negative control cells were killed with 70% methanol. Positive (+) control cells were incubated in RPMI medium (untreated). […] of AlamarBlue was added to the cells, and readings were taken after 24 hours, 48 hours, 72 hours, and 96 hours using a fluorimeter (excitation 544/transmission 590 nm).
Calculations were performed using the following formula. The peptide treated sample and positive control were adjusted for negative control. [formula]
Using the protocol described immediately above, about 100-150 peptides were screened for their stimulatory and/or inhibitory actions upon the growth of human leukocyte (“WBC”) cells as compared to the growth of untreated positive control cells.
The Alamar Blue stain used in the protocol permeates both cell and nuclear membranes, and is metabolized in the mitochondria to cause the change in color. The resulting fluorometric response is therefore a result of total mitochondrial activity caused by cell stimulation and/or mitosis (cell proliferation).

[3] = test system: yeast (Saccharomyces cerevisiae); experiment: Antimicrobial assay I, yeast assay in RPMI 1640; format: cell-based; conditions: RPMI 1640 media
HeLaS3 = experiment: Anti-cancer assay, MTT, LD50; format: cell-based; conditions: 24 hours with peptide, cervical carcinoma
Source text: (§1) Numbers are LD50 values (μg/mL).

SW480 = experiment: Anti-cancer assay, MTT, LD50; format: cell-based; conditions: SW480 colon adenocarcinoma line, 24 hours with peptide
Source text: as §1

PC3 = experiment: Anti-cancer assay, MTT, LD50; format: cell-based; conditions: 24 hours with peptide, prostate adenocarcinoma
Source text: as §1

BMKC = experiment: Anti-cancer assay, MTT, LD50; format: cell-based; conditions: BMKC cloned melanoma line, 24 hours with peptide
Source text: as §1

MCF7 = experiment: Anti-cancer assay, MTT, LD50; format: cell-based; conditions: MCF7 breast adenocarcinoma line, MTT, 24 hours with peptide
Source text: as §1

H1299 = experiment: Anti-cancer assay, MTT, LD50; format: cell-based; conditions: 24 hours with peptide, lung large cell carcinoma
Source text: as §1

[4] = test system: Pseudomonas aeruginosa ATCC 9027; experiment: Antimicrobial assay I, MIC by OD measurement; format: cell-based; conditions: 37° C. for 24 hours, absorbance 620 nm
[5] = test system: Staphylococcus aureus ATCC 6538; experiment: Antimicrobial assay I, MIC by OD measurement; format: cell-based; conditions: 37° C. for 24 hours, absorbance 620 nm
[6] = test system: human red blood cells (RBC); experiment: in vitro; format: cell-based; conditions: for Peptide toxicity RBC LD/50: human red blood cells
WI38 = conditions: MTT, 24 hours with peptide
in vitro = conditions: human, WI38 normal lung fibroblast cells, Peptide toxicity WI-38 LD/50, human fibroblast cells

Substance | MIC P. aeruginosa H374 (P. aeruginosa H374) | MIC P. aeruginosa H187 [1] | MIC S. typhimurium 14028S (S. typhimurium 14028S) [µg/mL] | MIC C. albicans 105 (Candida albicans 105) | MIC S. epidermidis C621 (S. epidermidis C621) [µg/mL] | MIC E. coli UB1005 (E. coli UB1005) [µg/mL] | MIC S. aureus SAP0017 (S. aureus (MRSA)) | other results
FAKLF-NH2 [P129 (91)] | >128 | >128 | > 128 | 128 | 32 | 64 | >128 | –
FAKIIAKIAKKI-NH2 [P143 (105)] | >128 | >128 | > 128 | >128 | > 128 | > 128 | >128 | –
FALALKA-NH2 [P141 (103)] | >128 | >128 | > 128 | >128 | > 128 | > 128 | >128 | –
FAKLLAKLAKKSL-NH2 [P127 (89)] | >128 | >128 | > 128 | 32 | 64 | 128 | >128 | –
FKRLAKIKVLRLAKIKR-NH2 [P147 (109)] | 128 | >128 | 128 | 64 | 64 | 64 | >128 | –
FAKLLAKLAKK-NH2 [P151 (113)] | 128 | >128 | > 128 | 128 | > 128 | > 128 | >128 | –
YAKLLAKLAKKAL-NH2 [P155 (117)] | >128 | >128 | > 128 | >128 | > 128 | > 128 | >128 | –
FAKIIAKIAKIAKKIL-NH2 [P139 (101)] | >128 | 128 | > 128 | 128 | 64 | 64 | >128 | –
FAKKLAKKLAKAAL-NH2 [P76 (52)] | 64 | >128 | 128 | 64 | > 128 | 16 | >128 | –
FAKLFAKLAKKFAL-NH2 [P121 (83)] | >128 | >128 | > 128 | 64 | > 128 | > 128 | >128 | –
FAKLLAKLAKKGL-NH2 [P152 (114)] | >128 | >128 | > 128 | 128 | 32 | 32 | >128 | –
VALALKALKKL-NH2 [P180 (141)] | >128 | >128 | > 128 | >128 | > 128 | > 128 | >128 | –
FAFGKGIGKIGKKGL-NH2 [P138 (100)] | >128 | >128 | > 128 | >128 | > 128 | > 128 | >128 | –
KFKKLAKKF-NH2 [P174 (135)] | >128 | >128 | > 128 | >128 | > 128 | > 128 | >128 | –
FAKLLAKLAKKEL-NH2 [P126 (88)] | >128 | >128 | > 128 | >128 | > 128 | > 128 | >128 | –
FALKALKK-NH2 [P145 (107)] | >128 | >128 | > 128 | 64 | > 128 | > 128 | >128 | –
FALALKAKKL-NH2 [P182] | – | – | – | – | – | – | – | stimulatory and/or inhibitory action on growth of human leukocyte (WBC) cells ([2]; compared to untreated positive control cells, Alamar Blue): stimulatory (and/or proliferative) at all concentrations through 500 μg/ml; yeast (MIC or MFC) [3]: > (> indicates greater than 200 μg/mL); HeLaS3 LD50 (HeLaS3): > (> indicates greater than 1000); LD50 SW480 (SW480): > (> indicates greater than 1000); PC3 LD50 (PC3): > (> indicates greater than 1000); LD50 BMKC (BMKC): > (> indicates greater than 1000); LD50 MCF7 (MCF7): > (> indicates greater than 1000); H1299 LD50 (H1299): > (> indicates greater than 1000); paerug9027 (MIC) [4]: > (> indicates greater than 200 μg/mL); staph6538 (MIC) [5]: > (> indicates greater than 200 μg/mL); LD50 ([6]; hemolytic assay, concentration at 50% hemolysis, 1 hour at 37° C.): > (> indicates greater than 1000); WI38 LD50 (WI38; normal fibroblast line): > (> indicates greater than 1000); LD50 WI38 (WI38; WI38 normal lung fibroblast line): > (> indicates greater than 1000)
FAVGLRAIKRALKKLRRGVRKVAKDL-NH2 [compound 119] | – | – | – | – | – | – | – | Peptide treated cell activity Percent stimulation relative to control ([2]; 0.1 ug/ml): 88%; Peptide treated cell activity Percent stimulation relative to control ([2]; 1 ug/ml): 108%; Peptide treated cell activity Percent stimulation relative to control ([2]; 10 ug/ml): 54%; Peptide treated cell activity Percent stimulation relative to control ([2]; 100 ug/ml): 117%; Peptide treated cell activity Percent stimulation relative to control ([2]; 500 ug/ml): 89%; CC50 at 24 h (in vitro): 500 µg/mL; Peptide toxicity RBC LD/50 [6]: 850
FAKLLAKLAKAKA-NH2 [compound 61] | – | – | – | – | – | – | – | Peptide treated cell activity Percent stimulation relative to control ([2]; 0.1 ug/ml): 110%; Peptide treated cell activity Percent stimulation relative to control ([2]; 1 ug/ml): 115%; Peptide treated cell activity Percent stimulation relative to control ([2]; 10 ug/ml): 116%; Peptide treated cell activity Percent stimulation relative to control ([2]; 100 ug/ml): 124%; Peptide treated cell activity Percent stimulation relative to control ([2]; 500 ug/ml): 114%; CC50 at 24 h (in vitro): > 1000 µg/mL; Peptide toxicity RBC LD/50 [6]: >1000
FAKLLAKLAKKLL-NH2 [compound 25] | – | – | – | – | – | – | – | Peptide treated cell activity Percent stimulation relative to control ([2]; 0.1 ug/ml): 78%; Peptide treated cell activity Percent stimulation relative to control ([2]; 1 ug/ml): 82%; Peptide treated cell activity Percent stimulation relative to control ([2]; 10 ug/ml): 71%; Peptide treated cell activity Percent stimulation relative to control ([2]; 100 ug/ml): 14%; Peptide treated cell activity Percent stimulation relative to control ([2]; 500 ug/ml): 12%; CC50 at 24 h (in vitro): 5 µg/mL; Peptide toxicity RBC LD/50 [6]: 20
